According to patent US10526287B2, “LSD1 inhibitors and uses thereof” (Constellation Pharmaceuticals, Inc., priority 2015, dated 2020):
Structures can show the parent of a compound that is named as a salt.

Biological target: LSD1 (Homo sapiens, UniProt O60341)
Assay: Biochemical assay for LSD1 activity (LSD1 demethylase TR-FRET)
Conditions: Table 6; biotinylated H3K4me1 peptide, 50 minutes at room temperature, TR-FRET; read-out: LSD1_Pep_TR-FRET_1.0 (IC50 T50)

IC50 [nM]	SMILES
< 100	CC/C(=C\c1ccccc1)[C@@H]1C[C@H]1N[C@H]1CC[C@H](N(C)CCC(=O)O)CC1 (racemic) [Compound 212, 3-(methyl((trans)-4-(((trans)-2-((E)-1-phenylbut-1-en-2-yl)cyclopropyl)amino)cyclohexyl)amino)propanoic Acid Dihydrochloride]
100 to 1000	CC/C(=C\c1ccccc1)[C@@H]1C[C@H]1N[C@H]1CC[C@@H](N(C)CCC(=O)O)CC1 (racemic) [Compound 213, 3-(methyl((cis)-4-(((trans)-2-((E)-1-phenylbut-1-en-2-yl)cyclopropyl)amino)cyclohexyl)amino)propanoic Acid Dihydrochloride]
< 100	CC/C(=C\c1ccccc1)[C@@H]1C[C@H]1N[C@H]1CC[C@H](NCc2ccc(C(=O)O)cc2)CC1 (racemic) [Compound 218, 4-((((trans)-4-(((trans)-2-((E)-1-phenylbut-1-en-2-yl)cyclopropyl)amino)cyclohexyl)amino)methyl)benzoic Acid Dihydrochloride]
< 100	CC/C(=C\c1ccccc1)[C@@H]1C[C@H]1N[C@H]1CC[C@H](NCC2(C(=O)O)CC2)CC1 (racemic) [Compound 223, 1-((((trans)-4-(((trans)-2-((E)-1-phenylbut-1-en-2-yl)cyclopropyl)amino)cyclohexyl)amino)methyl)cyclopropane-1-carboxylic Acid]
< 100	CC/C(=C\c1ccccc1)[C@@H]1C[C@H]1NC1CCC(NCc2ccc(C(=O)O)nc2)CC1 (mixture of isomers) [Compound 224, 5-((((trans)-4-(((trans)-2-((E)-1-phenylbut-1-en-2-yl)cyclopropyl)amino)cyclohexyl)amino)methyl)picolinic acid]
< 100	CC(C)/C(=C\c1ccccc1)[C@@H]1C[C@H]1NC1CCNCC1 (racemic) [Compound 277, N-((trans)-2-((E)-3-methyl-1-phenylbut-1-en-2-yl)cyclopropyl)piperidin-4-amine Dihydrochloride]
> 10000	CC(=Cc1ccc(C#N)cc1)C1CC1N[C@H]1CC[C@@H](N)CC1 (relative stereo) [Compound 131, 4-(2-(2-(((cis)-4-aminocyclohexyl)amino)cyclopropyl)prop-1-en-1-yl)benzonitrile Dihydrochloride]
> 10000	CC(=Cc1ccc(C#N)cc1)C1CC1N[C@H]1CC[C@H](N)CC1 (relative stereo) [Compound 132, 4-(2-(2-(((trans)-4-aminocyclohexyl)amino)cyclopropyl)prop-1-en-1-yl)benzonitrile Dihydrochloride]
< 100	CC/C(=C\c1ccccc1)[C@@H]1C[C@H]1N[C@H]1CC[C@H](NCCCC(=O)O)CC1 (relative stereo) [Compound 180, 4-(((trans)-4-(((trans)-2-((E)-1-phenylbut-1-en-2-yl)cyclopropyl)amino)cyclohexyl)amino)butanoic Acid bis(trifluoroacetic Acid) Salt]
< 100	C/C(=C\c1ccccc1)[C@@H]1C[C@H]1N[C@H]1CC[C@H](N(C)C)CC1 (single isomer, unassigned) [Compound 138, (trans)-N^1,N^1-dimethyl-N^4-((trans)-2-((E)-1-phenylprop-1-en-2-yl)cyclopropyl)cyclohexane-1,4-diamine]
< 100	COCCNC1CCC(N[C@@H]2C[C@H]2/C(C)=C/c2ccccc2)CC1 (single isomer, unassigned) [Compound 143, (trans)-N1-(2-methoxyethyl)-N4-((trans)-2-((E)-1-phenylprop-1-en-2-yl)cyclopropyl)cyclohexane-1,4-diamine bis(trifluoroacetic acid salt)]
< 100	COCCN[C@H]1CC[C@@H](N[C@@H]2C[C@H]2/C(C)=C/c2ccccc2)CC1 (single isomer, unassigned) [Compound 144, (cis)-N1-(2-methoxyethyl)-N4-((trans)-2-((E)-1-phenylprop-1-en-2-yl)cyclopropyl)cyclohexane-1,4-diamine bis(trifluoroacetic acid) salt]
< 100	CNC(=O)CCCN[C@H]1CC[C@@H](N[C@@H]2C[C@H]2/C(C)=C/c2ccccc2)CC1 (single isomer, unassigned) [Compound 145, N-methyl-4-(((cis)-4-(((trans)-2-((E)-1-phenylprop-1-en-2-yl)cyclopropyl)amino)cyclohexyl)amino)butanamide bis(trifluoroacetic acid) salt]
< 100	C/C(=C\c1ccccc1)[C@@H]1C[C@H]1N[C@H]1CC[C@H](NCCC(=O)N2CCCC2)CC1 (single isomer, unassigned) [Compound 146, 3-(((trans)-4-(((trans)-2-((E)-1-phenylprop-1-en-2-yl)cyclopropyl)amino)cyclohexyl)amino)-1-(pyrrolidin-1-yl)propan-1-one bis(trifluoroacetic acid) salt]
< 100	C/C(=C\c1ccccc1)[C@@H]1C[C@H]1N[C@H]1CC[C@H](NCC(C)(C)C(=O)O)CC1 (single isomer, unassigned) [Compound 148, 2,2-dimethyl-3-(((trans)-4-(((trans)-2-((E)-1-phenylprop-1-en-2-yl)cyclopropyl)amino)cyclohexyl)amino)propanoic acid bis(trifluoroacetic acid) salt]
< 100	C/C(=C\c1ccccc1)[C@@H]1C[C@H]1N[C@H]1CC[C@@H](NCC(C)(C)C(=O)O)CC1 (single isomer, unassigned) [Compound 149, 2,2-dimethyl-3-(((cis)-4-(((trans)-2-((E)-1-phenylprop-1-en-2-yl)cyclopropyl)amino)cyclohexyl)amino)propanoic acid bis(trifluoroacetic acid) salt]

Same assay, conditions: Table 7; biotinylated H3K4me1 peptide, 50 minutes at room temperature, TR-FRET; read-out: LSD1_Pep_TR-FRET_1.0 (IC50 T50)

IC50 [nM]	SMILES
100 to 1000	CC/C(=C\c1ccccc1)[C@@H]1C[C@H]1NC[C@H]1CC[C@H](NCC(C)(C)C(=O)O)CC1 (racemic) [Compound 232]
< 100	CC/C(=C\c1ccccc1)[C@@H]1C[C@H]1NC[C@H]1C[C@H](NCC(C)(C)C(=O)O)C1 (racemic) [Compound 233]
< 100	CC/C(=C\c1ccccc1)[C@@H]1C[C@H]1NCC1(C)CN(Cc2ccc(C(=O)O)cc2)C1 (racemic) [Compound 235]
< 100	CC/C(=C\c1ccccc1)[C@@H]1C[C@H]1NC[C@H]1C[C@H](NCc2ccc(C(=O)O)cc2)C1 (racemic) [Compound 236]
< 100	CC/C(=C\c1ccccc1)[C@@H]1C[C@H]1NC[C@H]1C[C@H](N)C1 (racemic) [Compound 239]
< 100	CC/C(=C\c1ccccc1)[C@@H]1C[C@H]1NCCC(C)(C)N (racemic) [Compound 240]
< 100	CC/C(=C\c1ccccc1)[C@@H]1C[C@H]1NCCC1CN(Cc2ccc(C(=O)O)cc2)C1 (racemic) [Compound 241]
< 100	CC/C(=C\c1ccccc1)[C@@H]1C[C@H]1NCc1cnn(C2CNC2)c1 (racemic) [Compound 242]
< 100	CC/C(=C\c1ccccc1)[C@@H]1C[C@H]1NCC1(C)CNC1 (racemic) [Compound 243]
< 100	CC/C(=C\c1ccccc1)[C@@H]1C[C@H]1NC[C@H]1CC[C@H](NCc2ccc(C(=O)O)cc2)CC1 (racemic) [Compound 245, 4-((((trans)-4-((((trans)-2-((E)-1-phenylbut-1-en-2-yl)cyclopropyl)amino)methyl)cyclohexyl)amino)methyl)benzoic Acid Bis Trifluoroacetate]
< 100	CC/C(=C\c1ccccc1)[C@@H]1C[C@H]1NCc1cnc(N)nc1 (racemic) [Compound 246, 5-((((trans)-2-((E)-1-phenylbut-1-en-2-yl)cyclopropyl)amino)methyl)pyrimidin-2-amine Hydrochloride]
< 100	CC/C(=C\c1ccccc1)[C@@H]1C[C@H]1NCc1ccccc1CN (racemic) [Compound 247, (trans)-N-(2-(aminomethyl)benzyl)-2-((E)-1-phenylbut-1-en-2-yl)cyclopropan-1-amine]

The remaining lines, values behind:

SMILES	IC50 [nM]
CC/C(=C\c1ccccc1)[C@@H]1C[C@H]1NC1CC2(CCN(CCC(=O)O)CC2)C1 (racemic) [Compound 225, 3-(2-(((trans)-2-((E)-1-phenylbut-1-en-2-yl)cyclopropyl)amino)-7-azaspiro[3.5]nonan-7-yl)propanoic Acid Bis Trifluoroacetate]	< 100
CC/C(=C\c1ccccc1)[C@@H]1C[C@H]1NC1CC2(C1)CN(Cc1ccc(C(=O)O)cc1)C2 (racemic) [Compound 226, 4-((6-(((trans)-2-((E)-1-phenylbut-en-2-yl)cyclopropyl)amino)-2-azaspiro[3.3]heptan-2-yl)methyl)benzoic acid bis trifluoroacetate]	< 100
CC/C(=C\c1ccccc1)[C@@H]1C[C@H]1NC1CC2(CCN(Cc3ccc(C(=O)O)cc3)CC2)C1 (racemic) [Compound 227, 4-((2-(((trans)-2-((E)-1-phenylbut-1-en-2-yl)cyclopropyl)amino)-7-azaspiro[3.5]nonan-7-yl)methyl)benzoic acid dihydrochloride]	< 100
CC/C(=C\c1ccccc1)[C@@H]1C[C@H]1NC1CC2(CCN(CC(C)(C)C(=O)O)CC2)C1 (racemic) [Compound 228, 2,2-dimethyl-3-(2-(((trans)-2-(E)-1-phenylbut-1-en-2-yl)cyclopropyl)amino)-7-azaspiro[3.5]nonan-7-yl)propanoic Acid Bis Trifluoroacetate]	< 100
CC/C(=C\c1ccccc1)[C@@H]1C[C@H]1NC1CC2(C1)CN(CC(C)(C)C(=O)O)C2 (racemic) [Compound 229]	< 100
CC/C(=C\c1ccccc1)[C@@H]1C[C@H]1NC1CC2(C1)CN(CCC(=O)O)C2 (racemic) [Compound 230]	< 100
CC/C(=C\c1ccccc1)[C@@H]1C[C@H]1NC1CC2(C1)CN(Cc1ccc(C(=O)O)nc1)C2 (racemic) [Compound 231]	< 100
